Consider three molecules from PubChem BioAssay AID1259407 (Chemical Carcinogenesis Research Information System (CCRIS), 2018).

For the data set, the system named is CCRIS mutagenicity, Ames/micronucleus/aberration tests. Briefly: CCRIS mutagenicity studies.

Calls of active or inactive are those of the source. The rule behind the calls is not given here.

`[O-]/[N+](=N\O)c1ccccc1`: the mutagenic call is “inactive; negative” (Test System: AMES SALMONELLA TYPHIMURIUM, Strain/Indicator: TA98, Metabolic Activation: HAMSTER, LIVER, S-9, AROCLOR 1254, Method: STANDARD PLATE); “inactive; negative” (Test System: AMES SALMONELLA TYPHIMURIUM, Strain/Indicator: TA98, Metabolic Activation: MOUSE, LIVER, S-9, AROCLOR 1254, Method: STANDARD PLATE); “inactive; negative” (Test System: AMES SALMONELLA TYPHIMURIUM, Strain/Indicator: TA98, Metabolic Activation: MOUSE, LIVER, S-9, Method: STANDARD PLATE); “inactive; negative” (Test System: AMES SALMONELLA TYPHIMURIUM, Strain/Indicator: TA98, Metabolic Activation: NONE, Method: STANDARD PLATE); “inactive; negative” (Test System: AMES SALMONELLA TYPHIMURIUM, Strain/Indicator: TA98, Metabolic Activation: RAT, LIVER, S-9, AROCLOR 1254, Method: STANDARD PLATE); “inactive; negative” (Test System: AMES SALMONELLA TYPHIMURIUM, Strain/Indicator: TA98, Metabolic Activation: RAT, LIVER, S-9, Method: STANDARD PLATE). Further, the mutagenic call (Test System: AMES SALMONELLA TYPHIMURIUM, Strain/Indicator: TA100, Metabolic Activation: HAMSTER, LIVER, S-9, AROCLOR 1254, Method: STANDARD PLATE) is “inactive; negative”; the mutagenic call (Test System: AMES SALMONELLA TYPHIMURIUM, Strain/Indicator: TA100, Metabolic Activation: HAMSTER, LIVER, S-9, Method: STANDARD PLATE) was “inactive; negative”; the mutagenic call (Test System: AMES SALMONELLA TYPHIMURIUM, Strain/Indicator: TA100, Metabolic Activation: MOUSE, LIVER, S-9, AROCLOR 1254, Method: STANDARD PLATE) was “inactive; negative”; the mutagenic call (Test System: AMES SALMONELLA TYPHIMURIUM, Strain/Indicator: TA100, Metabolic Activation: MOUSE, LIVER, S-9, Method: STANDARD PLATE) is “inactive; negative”; the mutagenic call (Test System: AMES SALMONELLA TYPHIMURIUM, Strain/Indicator: TA100, Metabolic Activation: NONE, Method: STANDARD PLATE) is “inactive; negative”; the mutagenic call (Test System: AMES SALMONELLA TYPHIMURIUM, Strain/Indicator: TA100, Metabolic Activation: RAT, LIVER, S-9, AROCLOR 1254, Method: STANDARD PLATE) was “inactive; negative”. Besides, the mutagenic call is “inactive; negative” (Test System: AMES SALMONELLA TYPHIMURIUM, Strain/Indicator: TA100, Metabolic Activation: RAT, LIVER, S-9, Method: STANDARD PLATE); “inactive; negative” (Test System: AMES SALMONELLA TYPHIMURIUM, Strain/Indicator: TA1535, Metabolic Activation: HAMSTER, LIVER, S-9, AROCLOR 1254, Method: STANDARD PLATE); “inactive; negative” (Test System: AMES SALMONELLA TYPHIMURIUM, Strain/Indicator: TA1535, Metabolic Activation: HAMSTER, LIVER, S-9, Method: STANDARD PLATE); “inactive; negative” (Test System: AMES SALMONELLA TYPHIMURIUM, Strain/Indicator: TA1535, Metabolic Activation: MOUSE, LIVER, S-9, AROCLOR 1254, Method: STANDARD PLATE); “inactive; negative” (Test System: AMES SALMONELLA TYPHIMURIUM, Strain/Indicator: TA1535, Metabolic Activation: MOUSE, LIVER, S-9, Method: STANDARD PLATE); “inactive; negative” (Test System: AMES SALMONELLA TYPHIMURIUM, Strain/Indicator: TA1535, Metabolic Activation: NONE, Method: STANDARD PLATE). In addition, the mutagenic call reads like this: (Test System: AMES SALMONELLA TYPHIMURIUM, Strain/Indicator: TA1535, Metabolic Activation: RAT, LIVER, S-9, AROCLOR 1254, Method: STANDARD PLATE) “inactive; negative”; (Test System: AMES SALMONELLA TYPHIMURIUM, Strain/Indicator: TA1535, Metabolic Activation: RAT, LIVER, S-9, Method: STANDARD PLATE) “inactive; negative”; (Test System: AMES SALMONELLA TYPHIMURIUM, Strain/Indicator: TA1537, Metabolic Activation: HAMSTER, LIVER, S-9, AROCLOR 1254, Method: STANDARD PLATE) “inactive; negative”; (Test System: AMES SALMONELLA TYPHIMURIUM, Strain/Indicator: TA1537, Metabolic Activation: HAMSTER, LIVER, S-9, Method: STANDARD PLATE) “inactive; negative”; (Test System: AMES SALMONELLA TYPHIMURIUM, Strain/Indicator: TA1537, Metabolic Activation: MOUSE, LIVER, S-9, AROCLOR 1254, Method: STANDARD PLATE) “inactive; negative”; (Test System: AMES SALMONELLA TYPHIMURIUM, Strain/Indicator: TA1537, Metabolic Activation: MOUSE, LIVER, S-9, Method: STANDARD PLATE) “inactive; negative”. Moreover, the mutagenic call is, setting by setting: (Test System: AMES SALMONELLA TYPHIMURIUM, Strain/Indicator: TA1537, Metabolic Activation: NONE, Method: STANDARD PLATE) “inactive; negative”; (Test System: AMES SALMONELLA TYPHIMURIUM, Strain/Indicator: TA1537, Metabolic Activation: RAT, LIVER, S-9, AROCLOR 1254, Method: STANDARD PLATE) “inactive; negative”; (Test System: AMES SALMONELLA TYPHIMURIUM, Strain/Indicator: TA1537, Metabolic Activation: RAT, LIVER, S-9, Method: STANDARD PLATE) “inactive; negative”; (Test System: AMES SALMONELLA TYPHIMURIUM, Strain/Indicator: TA1538, Metabolic Activation: HAMSTER, LIVER, S-9, AROCLOR 1254, Method: STANDARD PLATE) “inactive; negative”; (Test System: AMES SALMONELLA TYPHIMURIUM, Strain/Indicator: TA1538, Metabolic Activation: HAMSTER, LIVER, S-9, Method: STANDARD PLATE) “inactive; negative”; (Test System: AMES SALMONELLA TYPHIMURIUM, Strain/Indicator: TA1538, Metabolic Activation: RAT, LIVER, S-9, AROCLOR 1254, Method: STANDARD PLATE) “inactive; negative”. Also, the mutagenic call is, setting by setting: (Test System: E. COLI, Strain/Indicator: WP2 UVRA, Metabolic Activation: HAMSTER, LIVER, S-9, Method: STANDARD PLATE) “inactive; negative”; (Test System: E. COLI, Strain/Indicator: WP2 UVRA, Metabolic Activation: MOUSE, LIVER, S-9, AROCLOR 1254, Method: STANDARD PLATE) “inactive; negative”; (Test System: E. COLI, Strain/Indicator: WP2 UVRA, Metabolic Activation: MOUSE, LIVER, S-9, Method: STANDARD PLATE) “inactive; negative”; (Test System: E. COLI, Strain/Indicator: WP2 UVRA, Metabolic Activation: NONE, Method: STANDARD PLATE) “inactive; negative”; (Test System: E. COLI, Strain/Indicator: WP2 UVRA, Metabolic Activation: RAT, LIVER, S-9, Method: STANDARD PLATE) “inactive; negative”.

Turning to `CC(=O)OCC(O)CO` (stereo not given), the mutagenic call reads like this: (End Point: IN VITRO CHROMOSOMAL ABERRATIONS, Test System: CHO CELLS, Metabolic Activation: NONE) “inactive; negative”; (End Point: IN VITRO CHROMOSOMAL ABERRATIONS, Test System: CHO CELLS, Metabolic Activation: RAT, LIVER, S-9, AROCLOR 1254) “inactive; negative”; (Test System: AMES SALMONELLA TYPHIMURIUM, Strain/Indicator: TA98, Metabolic Activation: HAMSTER, LIVER, S-9, AROCLOR 1254, Method: PREINCUBATION) “inactive; negative”; (Test System: AMES SALMONELLA TYPHIMURIUM, Strain/Indicator: TA98, Metabolic Activation: NONE, Method: PREINCUBATION) “inactive; negative”; (Test System: AMES SALMONELLA TYPHIMURIUM, Strain/Indicator: TA98, Metabolic Activation: RAT, LIVER, S-9, AROCLOR 1254, Method: PREINCUBATION) “inactive; negative”; (Test System: AMES SALMONELLA TYPHIMURIUM, Strain/Indicator: TA100, Metabolic Activation: HAMSTER, LIVER, S-9, AROCLOR 1254, Method: PREINCUBATION) “inactive; negative”. In addition, the mutagenic call is “inactive; negative” (Test System: AMES SALMONELLA TYPHIMURIUM, Strain/Indicator: TA100, Metabolic Activation: NONE, Method: PREINCUBATION); “inactive; negative” (Test System: AMES SALMONELLA TYPHIMURIUM, Strain/Indicator: TA100, Metabolic Activation: RAT, LIVER, S-9, AROCLOR 1254, Method: PREINCUBATION); “active; positive” (Test System: AMES SALMONELLA TYPHIMURIUM, Strain/Indicator: TA1535, Metabolic Activation: HAMSTER, LIVER, S-9, AROCLOR 1254, Method: PREINCUBATION); “active; positive” (Test System: AMES SALMONELLA TYPHIMURIUM, Strain/Indicator: TA1535, Metabolic Activation: NONE, Method: PREINCUBATION); “active; positive” (Test System: AMES SALMONELLA TYPHIMURIUM, Strain/Indicator: TA1535, Metabolic Activation: RAT, LIVER, S-9, AROCLOR 1254, Method: PREINCUBATION); “inactive; negative” (Test System: AMES SALMONELLA TYPHIMURIUM, Strain/Indicator: TA1537, Metabolic Activation: HAMSTER, LIVER, S-9, AROCLOR 1254, Method: PREINCUBATION). Also, the mutagenic call was “inactive; negative” (Test System: AMES SALMONELLA TYPHIMURIUM, Strain/Indicator: TA1537, Metabolic Activation: NONE, Method: PREINCUBATION) and “inactive; negative” (Test System: AMES SALMONELLA TYPHIMURIUM, Strain/Indicator: TA1537, Metabolic Activation: RAT, LIVER, S-9, AROCLOR 1254, Method: PREINCUBATION).

Consider `Cc1cccc2c1cc1c3c(cccc32)-c2ccccc2-1`, for which, where the note is “Test System: AMES SALMONELLA TYPHIMURIUM, Strain/Indicator: TA100, Metabolic Activation: RAT, LIVER, S-9, AROCLOR 1254”, the mutagenic call is “active; positive”.
